Data published in ChEMBL document CHEMBL4651402, “Screening of ~5500 FDA-approved drugs and clinical candidates for anti-SARS-CoV-2 activity” (2021).

System: SARS-CoV-2
Assay: microbe, parasite or virus in culture
Details: Severe acute respiratory syndrome coronavirus 2, Vero C1008, 48 h

Row | SMILES | IC50 [µM] | IC50 (read-out: pIC50 (converted)) [µM]
1 | O=c1[nH]cnc2nc[nH]c12 [HYPOXANTHINE] | > 20 | > 20
2 | CNC(=O)[C@H]1O[C@@H](n2cnc3c(NCc4cccc(I)c4)ncnc32)[C@H](O)[C@@H]1O [IB-MECA] | > 20 | > 20
3 | Nc1nc(=O)n([C@H]2C[C@H](O)[C@@H](CO)O2)cc1I [IBACITABINE] | > 20 | > 20
4 | O=C1CC[C@H](N2Cc3c(OCc4ccc(CN5CCOCC5)cc4)cccc3C2=O)C(=O)N1 [IBERDOMIDE] | > 20 | > 20
5 | CNCCc1ccc(OC(=O)C(C)C)c(OC(=O)C(C)C)c1 [IBOPAMINE] | > 20 | > 20
6 | CCOP(=O)(Cc1ccc(C(=O)Nc2ccc(Br)cc2C#N)cc1)OCC [IBROLIPIM] | > 20 | > 20
7 | CC(C)C(=O)c1c(C(C)C)nn2ccccc12 [IBUDILAST] | > 20 | > 20
8 | CC(C)Cc1ccc(CC(=O)O)cc1 [IBUFENAC] | > 20 | > 20
9 | CC(C)Cc1ccc(C(C)C(=O)O)cc1 (stereo unspecified) [IBUPROFEN] | > 20 | > 20
10 | CC(C)(N)C(=O)N[C@H](COCc1ccccc1)C(=O)N1CCC2(CC1)CN(S(C)(=O)=O)c1ccccc12 [IBUTAMOREN] | > 20 | > 20
11 | CCCCCCCN(CC)CCCC(O)c1ccc(NS(C)(=O)=O)cc1 (stereo unspecified) [IBUTILIDE] | > 20 | > 20
12 | C#Cc1cccc(Nc2ncnc3cc4c(cc23)OCCOCCOCCO4)c1 [ICOTINIB] | > 20 | > 20
13 | COc1cc(C(=O)O)ccc1NC(=O)[C@@H]1N[C@@H](CC(C)(C)C)[C@](C#N)(c2ccc(Cl)cc2F)[C@H]1c1cccc(Cl)c1F [IDASANUTLIN] | > 20 | > 20
14 | c1ccc2c(c1)OCC(C1=NCCN1)O2 (stereo unspecified) [IDAZOXAN] | > 20 | > 20
15 | COC1=C(OC)C(=O)C(CCCCCCCCCCO)=C(C)C1=O [IDEBENONE] | > 20 | > 20
16 | CC[C@H](Nc1ncnc2[nH]cnc12)c1nc2cccc(F)c2c(=O)n1-c1ccccc1 [IDELALISIB] | > 20 | > 20
17 | O=C1C2CC3CC1CC(O)(C3)C2 [IDRAMANTONE] | > 20 | > 20
18 | CC[C@H]1OC(=O)[C@H](C)[C@@H](O[C@H]2C[C@@](C)(OC)[C@@H](O)[C@H](C)O2)[C@H](C)[C@@H](O[C@@H]2O[C@H](C)C[C@H](N(C)C(C)C)[C@H]2O)[C@@]2(C)CC(C)=C(O2)[C@H](C)[C@@H](O)[C@]1(C)O [IDREMCINAL] | > 20 | > 20
19 | CC(C(O)c1ccc(O)cc1)N1CCC(Cc2ccccc2)CC1 (stereo unspecified) [IFENPRODIL] | > 20 | > 20

Row | SMILES | IC50 [µM] | IC50 (read-out: pIC50 (converted)) [µM]
20 | O=P1(NCCCl)OCCCN1CCCl (stereo unspecified) [IFOSFAMIDE] | > 20 | > 20
21 | CCC(C/C=C/c1ccccc1)(c1ccccc1)N(C)CC1CC1 (stereo unspecified) [IGMESINE] | > 20 | > 20
22 | CS(=O)(=O)Nc1cc2occ(NC=O)c(=O)c2cc1Oc1ccccc1 [IGURATIMOD] | > 20 | > 20
23 | COc1ccnc(C[S+]([O-])c2nc3cc(-n4cccc4)ccc3[nH]2)c1C (stereo unspecified) [ILAPRAZOLE] | > 20 | > 20
24 | O=C(/C=C/c1ccc2c(c1)OCO2)N1CCCCC1 [ILEPCIMIDE] | > 20 | > 20
25 | COc1cc(C(C)=O)ccc1OCCCN1CCC(c2noc3cc(F)ccc23)CC1 [ILOPERIDONE] | > 20 | > 20
26 | c1ccc(C2CN=C3NCCN32)cc1 (stereo unspecified) [IMAFEN] | > 20 | > 20
27 | O=C1CCC(c2ccc(-n3ccnc3)cc2)=NN1 [IMAZODAN] | > 20 | > 20
28 | N=C1NC(=O)N2CC12 (stereo unspecified) [IMEXON] | > 20 | > 20
29 | O=[N+]([O-])/N=C1\NCCN1Cc1ccc(Cl)nc1 [IMIDACLOPRID] | > 20 | > 20
30 | O=C(O)Cc1c[nH]cn1 [IMIDAZOLE ACETIC ACID] | > 20 | > 20
31 | O=C(Nc1cccc(C2=NCCN2)c1)Nc1cccc(C2=NCCN2)c1 [IMIDOCARB] | > 20 | > 20
32 | CCn1ccnc1CC1COc2ccccc2O1 (stereo unspecified) [IMILOXAN] | > 20 | > 20
33 | C[C@@H](O)[C@H]1C(=O)N2C(C(=O)O)=C(SCCNC=N)C[C@H]12 [IMIPENEM ANHYDROUS] | > 20 | > 20
34 | CN(C)CCCN1c2ccccc2CCc2ccccc21 [IMIPRAMINE] | > 20 | > 20
35 | CC(C)Cn1cnc2c(N)nc3ccccc3c21 [IMIQUIMOD] | > 20 | > 20
36 | Nc1cc(-c2ccncc2)c[nH]c1=O [INAMRINONE] | > 20 | > 20
37 | CO[C@@H]1[C@H](OP(=O)(OC[C@H]2O[C@@H](n3cnc4c(N)ncnc43)C[C@@H]2O)SCOC(=O)OC(C)C)[C@@H](CO)O[C@H]1n1ccc(=O)[nH]c1=O (stereo partly specified) [INARIGIVIR SOPROXIL] | > 20 | > 20
38 | CC1(c2ccccc2)Cc2cc(OCC(=O)O)c(Cl)c(Cl)c2C1=O (stereo unspecified) [INDACRINONE] | > 20 | > 20
